Data on 12 compounds can be found in PMC9572860, “Antiprotozoal Activity of Azabicyclo-Nonanes Linked to Tetrazole or Sulfonamide Cores” (Molecules, 2022).

Read-outs that look alike come from different tables or passages of the source.

Data set [1] concerns P. falciparum NF54. As to the kind of experiment: In vitro microplate 3H-hypoxanthine incorporation assay against P. falciparum NF54. It is filed as cell-based, Plasmodium falciparum. To be noted: for S.I. = IC50 (Cyt.)/IC50 (P.f. NF54): L-6 cytotoxicity over P.f. NF54; for IC50: Plasmodium falciparum, NF54 strain sensitive to chloroquine and pyrimethamine, erythrocytic stages, average of four determinations, read-out: P. Falciparum NF54 IC50. As for the experimental part:
(§1) Compounds were tested for their activities against strains of P. falciparum and T. b. rhodesiense via microplate assays. Their cytotoxicity was determined with rat skeletal myoblasts (L-6 cells). Chloroquine and melarsoprol served as standards (Table 1).
In vitro activity against erythrocytic stages of P. falciparum was determined using a ^3H-hypoxanthine incorporation assay, using the drug-sensitive NF54 strain [21] or the chloroquine- and pyrimethamine-resistant K1 strain [22]. Compounds were dissolved in DMSO at 10 mg/mL and added to parasite cultures incubated in RPMI 1640 medium without hypoxanthine, supplemented with HEPES (5.94 g/L), NaHCO3 (2.1 g/L), neomycin (100 U/mL), Albumax (5 g/L) and washed human red cells A+ at 2.5% hematocrit (0.3% parasitemia). Serial drug dilutions of 11 three-fold dilution steps covering a range from 100 to 0.002 µg/mL were prepared. The 96-well plates were incubated in a humidified atmosphere at 37 °C; 4% CO2, 3% O2, 93% N2. After 48 h, 0.05 mL of ^3H-hypoxanthine (=0.5 µCi) was added to each well of the plate. The plates were incubated for an additional 24 h under the same conditions. The plates were then harvested with a Betaplate cell harvester (Wallac, Zurich, Switzerland). The red blood cells were transferred onto a glass fiber filter and washed with distilled water. The dried filters were inserted into a plastic foil with 10 mL of scintillation fluid and counted in a Betaplate liquid scintillation counter (Wallac, Zurich, Switzerland). IC50 values were calculated from sigmoidal inhibition curves by linear regression using Microsoft Excel. Chloroquine (Sigma C6628) was used as control.

A short description of data set [2]: In vitro cytotoxicity with L-6 cells. In kind it is cell-based, rat. As for the experimental part: as §1
Assays were performed in 96-well microtiter plates, each well containing 0.1 mL of RPMI 1640 medium supplemented with 1% L-glutamine (200 mM) and 10% fetal bovine serum and 4000 L-6 cells (a primary cell line derived from rat skeletal myoblasts, ATCC CRL-1458™). Serial drug dilutions of 11 three-fold dilution steps covering a range from 100 to 0.002 μg/mL were prepared. After 70 h of incubation, the plates were inspected under an inverted microscope to assure the growth of the controls and sterile conditions. Then, 0.01 mL resazurin solution (resazurin, 12.5 mg in 100 ml double-distilled water) was added to each well and the plates incubated for another 2 h. The plates were read with a Spectramax Gemini XS microplate fluorometer (Molecular Devices Cooperation, Sunnyvale, CA, USA) using an excitation wavelength of 536 nm and an emission wavelength of 588 nm. The IC50 values were calculated by linear regression from the sigmoidal dose inhibition curves using SoftmaxPro software (Molecular Devices Cooperation, Sunnyvale, CA, USA). Podophyllotoxin (Sigma P4405) was used as control.

Data set [3] relates to T. b. rhodesiense STIB 900. As to the kind of experiment: In vitro microplate resazurin assay against T. brucei rhodesiense. In kind it is cell-based, Trypanosoma brucei rhodesiense. To be noted: for S.I. = IC50 (Cyt.)/IC50 (T.b.r.): L-6 cytotoxicity over T.b.r.; for IC50: Trypanosoma brucei, read-out: T. Brucei Rhodesiense IC50. As to the method:
as §1
Minimum essential medium (50 µL) supplemented with 25 mM HEPES, 1 g/L additional glucose, 1% MEM nonessential amino acids (100×), 0.2 mM 2-mercaptoethanol, 1 mM Na-pyruvate and 15% heat inactivated horse serum was added to each well of a 96-well microtiter plate. Serial drug dilutions of 11 three-fold dilution steps covering a range from 100 to 0.002 μg/mL were prepared. Then, 4 × 10^3 bloodstream forms of T. b. rhodesiense STIB 900 in 50 µL was added to each well and the plate incubated at 37 °C under a 5% CO2 atmosphere for 70 h. Ten microliters of resazurin solution (resazurin, 12.5 mg in 100 mL double-distilled water) was then added to each well and incubation continued for an additional 2–4 h. The plates were then read with a Spectramax Gemini XS microplate fluorometer (Molecular Devices Cooperation, Sunnyvale, CA, USA) using an excitation wavelength of 536 nm and an emission wavelength of 588 nm. Data were analyzed with the graphic program Softmax Pro (Molecular Devices Cooperation, Sunnyvale, CA, USA), which calculated IC50 values by linear regression and 4-parameter logistic regression from the sigmoidal dose inhibition curves. Melarsoprol (Arsobal Sanofi-Aventis, received from WHO) was used as control.
A general note: The colour change of resazurin is a common sign of viable cells or microbes.

The mark [4] stands for this setting: STIB 900 bloodstream forms, average of four determinations.

As for `CC(C)(C)n1nnnc1CN(CCN1CC2[C@H](c3ccccc3)CC(N3CCCCC3)(C[C@H]2c2ccccc2)C1)Cc1nnnn1C(C)(C)C` (racemic) [Compound 15, rac-(6R,9R)-N,N-bis[(1-tert-Butyl-1H-tetrazol-5-yl)methyl]-2-[6,9-diphenyl-1-(piperidin-1-yl)-3-azabicyclo[3.2.2]nonan-3-yl]ethan-1-amine], in data set [1], the “S.I. = IC50 (Cyt.)/IC50 (P.f. NF54)” value was determined as 5.62. Also, the 50% inhibitory concentration (IC50) in data set [1] was found to be 742 nM; in data set [3] (setting [4]), 1300 nM. This compound also had a half-maximal inhibitory concentration (IC50) at 72 h in data set [2] (rat) of 4.17 µM. Also, the “S.I. = IC50 (Cyt.)/IC50 (T.b.r.)” value in data set [3] is 3.21.

Turning to `Cc1ccc([C@@H](NCCN2CC3C(c4ccccc4)CC(N4CCCCC4)(CC3c3ccccc3)C2)c2nnnn2C(C)(C)C)cc1` (mixture of isomers) [Compound 13A, rac-N-[(1R)-(1-tert-Butyl-1H-tetrazol-5-yl)(p-tolyl)methyl]-2-[(6R,9R)-6,9-diphenyl-1-(piperidin-1-yl)-3-azabicyclo[3.2.2]nonan-3-yl]ethan-1-amine], in data set [1], the “S.I. = IC50 (Cyt.)/IC50 (P.f. NF54)” value is recorded as 5.72 and the concentration for half-maximal inhibition (IC50) is 446 nM. The compound also showed a concentration for half-maximal inhibition (IC50) at 72 h in data set [2] (rat) of 2.55 µM. The “S.I. = IC50 (Cyt.)/IC50 (T.b.r.)” value in data set [3] is 7.75. In addition, the concentration for half-maximal inhibition (IC50) in data set [3] (setting [4]) was determined as 329 nM.

On to `Cc1ccc(S(=O)(=O)NCCN2CCC3(N4CCCC4)C[C@H](c4ccccc4)C2[C@@H](c2ccccc2)C3)cc1` (racemic) [Compound 20, rac-(7R,8R)-4-Methyl-N-{2-[7,8-diphenyl-5-(pyrrolidin-1-yl)-2-azabicyclo[3.2.2]nonan-2-yl]ethyl}benzenesulfonamide], for which, in data set [1], the “S.I. = IC50 (Cyt.)/IC50 (P.f. NF54)” value was 14.7 and the IC50 worked out at 487 nM. The compound also returned a half-inhibitory concentration (IC50) at 72 h in data set [2] (rat) of 7.15 µM. Moreover, the “S.I. = IC50 (Cyt.)/IC50 (T.b.r.)” value in data set [3] was determined as 11.0. Besides, the IC50 in data set [3] (setting [4]) was 647 nM.

For the compound `CC(C)(C)n1nnnc1[C@H](NCCN1CC2C(c3ccccc3)CC(N3CCCCC3)(CC2c2ccccc2)C1)c1ccccc1` (mixture of isomers) [Compound 12A, rac-N-[(1R)-(1-tert-Butyl-1H-tetrazol-5-yl])(phenyl)methyl]-2-[(6R,9R)-6,9-diphenyl-1-(piperidin-1-yl)-3-azabicyclo[3.2.2]nonan-3-yl]ethan-1-amine], in data set [1], the “S.I. = IC50 (Cyt.)/IC50 (P.f. NF54)” value was 11.2 and the IC50 was found to be 252 nM. This compound showed an IC50 at 72 h in data set [2] (rat) of 2.83 µM. For the same compound, in data set [3], the “S.I. = IC50 (Cyt.)/IC50 (T.b.r.)” value came to 1.29. For the same compound, in data set [3] (setting [4]), the half-maximal inhibitory concentration (IC50) is 2200 nM.

Turning to `Cc1ccc(S(=O)(=O)NCCN2CCC3(N4CCCCC4)C[C@H](c4ccccc4)C2[C@@H](c2ccccc2)C3)cc1` (racemic) [Compound 19, rac-(7R,8R)-4-Methyl-N-[2-(7,8-diphenyl-5-(piperidin-1-yl)-2-azabicyclo[3.2.2]nonan-2-yl)ethyl]benzenesulfonamide], in data set [1], the “S.I. = IC50 (Cyt.)/IC50 (P.f. NF54)” value stood at 18.7 and the IC50 is 577 nM. In data set [2] (rat), this compound had an IC50 at 72 h of 10.8 µM. In addition, the “S.I. = IC50 (Cyt.)/IC50 (T.b.r.)” value in data set [3] was 9.39. Besides, the IC50 in data set [3] (setting [4]) is 1150 nM.

In the case of `CC(C)(C)n1nnnc1C(NCCN1CC2C(c3ccccc3)CC(N3CCCCC3)(CC2c2ccccc2)C1)c1ccccc1` (racemic) [Compound 12B, rac-N-[(1R)-1-tert-Butyl-1H-tetrazol-5-yl])(phenyl)methyl]-2-[(6S,9S)-6,9-diphenyl-1-(piperidin-1-yl)-3-azabicyclo[3.2.2]nonan-3-yl]ethan-1-amine], in data set [1], the “S.I. = IC50 (Cyt.)/IC50 (P.f. NF54)” value stood at 1.92 and the IC50 was 1330 nM. This compound also registered an IC50 at 72 h in data set [2] (rat) of 2.56 µM. For the same compound, the “S.I. = IC50 (Cyt.)/IC50 (T.b.r.)” value in data set [3] stood at 1.68. Moreover, in data set [3] (setting [4]), the IC50 amounted to 1520 nM.

Turning to `Nc1nc(N)nc(Nc2ccc([As]3SCC(CO)S3)cc2)n1` (stereo not shown) [MEL, melarsoprol, reference compound], the IC50 at 72 h in data set [2] (rat skeletal myoblasts, average of four determinations, read-out: Cytotox. L-6 Cells IC50) worked out at 7.78 µM. For the same compound, in data set [3], the “S.I. = IC50 (Cyt.)/IC50 (T.b.r.)” value was 864 and the half-maximal inhibitory concentration (IC50) was determined as 9 nM.

Regarding `CC(C)(C)C(NCCN1CC2[C@@H](c3ccccc3)CC(N3CCCCC3)(C[C@@H]2c2ccccc2)C1)c1nnnn1C(C)(C)C` (mixture of isomers) [Compound 11B, rac-(1R)-1-(1-tert-Butyl-1H-tetrazol-5-yl)-2,2-dimethyl-N-{2-[(6S,9S)-6,9-diphenyl-1-(piperidin-1-yl)-3-azabicyclo[3.2.2]nonan-3-yl]ethyl}propan-1-amine], the “S.I. = IC50 (Cyt.)/IC50 (P.f. NF54)” value in data set [1] is on record as 4.99. Further, the IC50 in data set [1] came out at 1320 nM; in data set [3] (setting [4]), 4920 nM. The IC50 at 72 h in data set [2] (rat) stood at 6.59 µM. Further, the “S.I. = IC50 (Cyt.)/IC50 (T.b.r.)” value in data set [3] was found to be 1.34.

`CC(C)(C)C(NCCN1CC2[C@H](c3ccccc3)CC(N3CCCCC3)(C[C@H]2c2ccccc2)C1)c1nnnn1C(C)(C)C` (mixture of isomers) [Compound 11A, rac-(1R)-1-(1-tert-Butyl-1H-tetrazol-5-yl)-2,2-dimethyl-N-{2-[(6R,9R)-6,9-diphenyl-1-(piperidin-1-yl)-3-azabicyclo[3.2.2]nonan-3-yl]ethyl}propan-1-amine]: in data set [1], the “S.I. = IC50 (Cyt.)/IC50 (P.f. NF54)” value worked out at 6.75 and the IC50 was found to be 2980 nM. In addition, half-maximal inhibition in data set [2] (rat) (IC50 at 72 h) required 20.1 µM. Besides, the “S.I. = IC50 (Cyt.)/IC50 (T.b.r.)” value in data set [3] was 3.04. The 50% inhibitory concentration (IC50) in data set [3] (setting [4]) amounted to 6610 nM.

On to `O=S(=O)(c1ccc(Cl)cc1)N1CCC2(N3CCCC3)C[C@H](c3ccccc3)C1[C@@H](c1ccccc1)C2` (racemic) [Compound 18, rac-(7R,8R)-2-(4-Chlorobenzenesulfonyl)-7,8-diphenyl-5-(pyrrolidin-1-yl)-2-azabicyclo[3.2.2]nonane], for which, in data set [1], the “S.I. = IC50 (Cyt.)/IC50 (P.f. NF54)” value is listed as 10.4 and the half-maximal inhibitory concentration (IC50) amounted to 606 nM. In data set [2] (rat), this compound displayed an IC50 at 72 h of 6.29 µM. In addition, the “S.I. = IC50 (Cyt.)/IC50 (T.b.r.)” value in data set [3] came out at 5.28. Moreover, the IC50 in data set [3] (setting [4]) was 1190 nM.

Take `Cc1ccc(C(NCCN2CC3C(c4ccccc4)CC(N4CCCCC4)(CC3c3ccccc3)C2)c2nnnn2C(C)(C)C)cc1` (stereo in doubt) [Compound 13B, rac-N-[(1R)-(1-tert-butyl-1H-tetrazol-5-yl)(p-tolyl)methyl]-2-[(6S,9S)-6,9-diphenyl-1-(piperidin-1-yl)-3-azabicyclo[3.2.2]nonan-3-yl]ethan-1-amine]: in data set [1], the “S.I. = IC50 (Cyt.)/IC50 (P.f. NF54)” value is on record as 3.03 and the concentration for half-maximal inhibition (IC50) is 680 nM. The compound further registered a half-maximal inhibitory concentration (IC50) at 72 h in data set [2] (rat) of 2.06 µM. Further, the “S.I. = IC50 (Cyt.)/IC50 (T.b.r.)” value in data set [3] was 2.06. The IC50 in data set [3] (setting [4]) stood at 1000 nM.

As to `CC(C)(C)n1nnnc1CNCCN1CC2[C@H](c3ccccc3)CC(N3CCCCC3)(C[C@H]2c2ccccc2)C1` (racemic) [Compound 14, rac-(6R,9R)-N-[(1-tert-Butyl-1H-tetrazol-5-yl)methyl]-2-[6,9-diphenyl-1-(piperidin-1-yl)-3-azabicyclo[3.2.2]nonan-3-yl]ethan-1-amine], in data set [1], the “S.I. = IC50 (Cyt.)/IC50 (P.f. NF54)” value was found to be 8.76 and the concentration for half-maximal inhibition (IC50) was determined as 1940 nM. The compound also had an IC50 at 72 h in data set [2] (rat) of 17 µM. In data set [3], the “S.I. = IC50 (Cyt.)/IC50 (T.b.r.)” value is given as 14.17. In addition, the IC50 in data set [3] (setting [4]) is 1200 nM.

The IC50 is the concentration at which inhibition is half-maximal.
